What follows are compounds tested against T1, human Fatty Acid Synthase (Homo sapiens, UniProt P49327) (assay: Human FAS enzyme assay (decrease in NADPH fluorescence)). Settings: % inhibition at a concentration of 100 μmolar.
T1 construct: made in house
T1 sequence (P49327 whole entry): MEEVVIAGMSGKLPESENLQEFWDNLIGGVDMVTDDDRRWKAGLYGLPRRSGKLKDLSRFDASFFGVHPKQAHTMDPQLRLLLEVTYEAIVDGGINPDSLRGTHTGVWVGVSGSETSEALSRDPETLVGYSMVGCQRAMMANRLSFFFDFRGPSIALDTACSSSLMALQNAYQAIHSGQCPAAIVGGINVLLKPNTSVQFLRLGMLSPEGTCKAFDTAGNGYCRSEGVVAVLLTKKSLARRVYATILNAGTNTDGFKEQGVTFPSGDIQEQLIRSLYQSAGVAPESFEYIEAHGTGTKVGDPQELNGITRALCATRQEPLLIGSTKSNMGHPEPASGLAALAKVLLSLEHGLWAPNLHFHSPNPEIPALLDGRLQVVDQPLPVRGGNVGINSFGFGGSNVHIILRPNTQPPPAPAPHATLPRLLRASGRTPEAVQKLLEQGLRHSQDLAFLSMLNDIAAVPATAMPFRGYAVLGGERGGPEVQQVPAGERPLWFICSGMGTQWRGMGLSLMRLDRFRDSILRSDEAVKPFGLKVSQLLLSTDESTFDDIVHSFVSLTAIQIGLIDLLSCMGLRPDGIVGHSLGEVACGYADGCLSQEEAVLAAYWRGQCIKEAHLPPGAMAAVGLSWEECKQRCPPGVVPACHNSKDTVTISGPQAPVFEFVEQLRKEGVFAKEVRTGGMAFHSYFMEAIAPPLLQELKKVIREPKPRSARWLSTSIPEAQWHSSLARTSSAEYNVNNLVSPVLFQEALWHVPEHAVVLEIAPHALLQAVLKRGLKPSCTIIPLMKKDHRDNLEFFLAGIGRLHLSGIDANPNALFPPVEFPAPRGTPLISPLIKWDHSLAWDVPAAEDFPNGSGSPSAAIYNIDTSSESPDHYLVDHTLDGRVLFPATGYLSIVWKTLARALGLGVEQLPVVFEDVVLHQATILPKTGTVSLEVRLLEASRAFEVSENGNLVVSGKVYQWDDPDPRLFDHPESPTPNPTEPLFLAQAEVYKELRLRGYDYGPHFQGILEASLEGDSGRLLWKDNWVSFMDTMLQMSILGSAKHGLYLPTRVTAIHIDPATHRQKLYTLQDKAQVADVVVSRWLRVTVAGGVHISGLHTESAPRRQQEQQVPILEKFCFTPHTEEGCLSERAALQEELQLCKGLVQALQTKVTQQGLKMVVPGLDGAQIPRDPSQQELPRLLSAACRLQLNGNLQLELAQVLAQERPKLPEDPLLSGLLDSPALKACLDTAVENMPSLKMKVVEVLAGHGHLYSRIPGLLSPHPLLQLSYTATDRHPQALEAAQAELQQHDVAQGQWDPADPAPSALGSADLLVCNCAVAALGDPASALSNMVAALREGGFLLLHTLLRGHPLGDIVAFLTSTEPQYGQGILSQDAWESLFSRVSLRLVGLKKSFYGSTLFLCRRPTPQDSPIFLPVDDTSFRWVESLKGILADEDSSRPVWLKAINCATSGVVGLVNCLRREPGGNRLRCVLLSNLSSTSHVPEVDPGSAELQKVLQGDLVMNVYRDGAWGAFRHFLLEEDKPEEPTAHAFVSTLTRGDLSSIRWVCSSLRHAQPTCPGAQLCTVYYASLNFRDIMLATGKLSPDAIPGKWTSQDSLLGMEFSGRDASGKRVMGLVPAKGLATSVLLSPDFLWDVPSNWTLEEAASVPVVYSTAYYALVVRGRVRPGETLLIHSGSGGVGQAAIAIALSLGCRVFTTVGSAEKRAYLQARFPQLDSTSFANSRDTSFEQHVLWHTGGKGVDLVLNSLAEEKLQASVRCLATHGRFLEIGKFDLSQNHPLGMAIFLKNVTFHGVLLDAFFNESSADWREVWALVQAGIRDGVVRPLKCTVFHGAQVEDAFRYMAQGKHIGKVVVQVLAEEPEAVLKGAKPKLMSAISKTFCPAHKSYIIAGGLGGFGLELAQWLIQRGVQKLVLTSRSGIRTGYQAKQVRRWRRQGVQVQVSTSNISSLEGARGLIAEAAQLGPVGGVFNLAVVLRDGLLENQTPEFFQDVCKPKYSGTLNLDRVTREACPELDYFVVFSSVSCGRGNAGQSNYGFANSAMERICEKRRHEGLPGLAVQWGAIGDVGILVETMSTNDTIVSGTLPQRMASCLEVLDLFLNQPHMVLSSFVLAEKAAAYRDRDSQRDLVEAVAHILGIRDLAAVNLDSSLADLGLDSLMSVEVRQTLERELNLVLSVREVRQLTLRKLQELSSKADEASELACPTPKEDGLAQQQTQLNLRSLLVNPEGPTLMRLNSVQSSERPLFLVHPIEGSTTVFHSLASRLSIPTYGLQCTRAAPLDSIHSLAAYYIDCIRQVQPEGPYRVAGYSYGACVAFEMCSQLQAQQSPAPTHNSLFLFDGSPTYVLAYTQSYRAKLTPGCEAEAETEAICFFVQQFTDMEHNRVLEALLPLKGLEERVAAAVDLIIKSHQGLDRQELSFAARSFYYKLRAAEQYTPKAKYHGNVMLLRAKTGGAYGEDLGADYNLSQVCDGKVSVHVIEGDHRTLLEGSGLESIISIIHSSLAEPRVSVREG
Format: biochemical
In short: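 In-house human FAS was preincubated with compound and NADPH for 15 min at room temperature in 0.1 M Tris pH 7.5 with EDTA, glutathione and BSA. Malonyl CoA and acetyl CoA (500 μM and 150 μM in the added mix) were then added for 60 min. IC50 came from time-zero-subtracted NADPH fluorescence (340/460 nm).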
Cc1ccc(C(=O)N2CCC(c3ccc(C#N)cc3)CC2)cc1NC(=O)NC(C(=O)O)C(C)C (stereo not shown) [Example 371, 2-[[5-[4-(4-cyanophenyl)piperidine-1-carbonyl]-2-methylphenyl]carbamoylamino]-3-methylbutanoic acid] showed an inhibition at 100 µM of 79%.
Cc1ccc(C(=O)N2CCC(c3ccc(C#N)cc3)CC2)cc1NC(=O)NCCCC(=O)O [Example 407, 4-[[5-[4-(4-cyanophenyl)piperidine-1-carbonyl]-2-methylphenyl]carbamoylamino]butanoic acid] gave an inhibition at 100 µM of 104%.
Cc1ccc(C(=O)N2CCC(c3ccc(C#N)cc3)CC2)cc1NC(=O)NCC(O)CO (stereo not shown) [Example 184, 1-[5-[4-(4-cyanophenyl)piperidine-1-carbonyl]-2-methyl-phenyl]-3-(2,3-dihydroxypropyl)urea] showed an inhibition at 100 µM of 81.7%.
Compound CC(C)NC(=O)Nc1cc(C(=O)N2CCC(c3ccc(C#N)cc3)CC2)ccc1OC(F)(F)F [Example 4, 3-[5-[4-(4-cyanophenyl)piperidine-1-carbonyl]-2-(trifluoromethoxy)phenyl]-1-propan-2-yl-urea] has an inhibition at 100 µM of 86.1%.
With COC(=O)[C@H](CNC(=O)Nc1cc(C(=O)N2CCC(c3ccc(C#N)cc3)CC2)ccc1C)NC(=O)OC(C)(C)C [Example 177, Methyl (2S)-3-[[5-[4-(4-cyanophenyl)piperidine-1-carbonyl]-2-methyl-phenyl]carbamoylamino]-2-[(2-methylpropan-2-yl)oxycarbonylamino]propanoate] the inhibition at 100 µM was 94.8%.
Compound CSCCCNC(=O)Nc1cc(C(=O)N2CCC(c3ccc(C#N)cc3)CC2)ccc1C [Example 157, 1-[5-[4-(4-cyanophenyl)piperidine-1-carbonyl]-2-methyl-phenyl]-3-(3-methylsulfanylpropyl)urea] has an inhibition at 100 µM of 92.7%.
Compound Cc1ccc(C(=O)N2CCC(c3ccc(C#N)cc3)CC2)cc1NC(=O)NC(CO)CO [Example 186, 1-[5-[4-(4-cyanophenyl)piperidine-1-carbonyl]-2-methyl-phenyl]-3-(1,3-dihydroxypropan-2-yl)urea] has an inhibition at 100 µM of 86.4%.
Cc1ccc(C(=O)N2CCC(c3ccc(C#N)cc3)CC2)cc1NC(=O)NCc1ncco1 [Example 269, 1-[5-[4-(4-cyanophenyl)piperidine-1-carbonyl]-2-methyl-phenyl]-3-(1,3-oxazol-2-ylmethyl)urea] was tested, and the inhibition at 100 µM was 89.9%.
Cc1ccc(NC(=O)NCC2CCOCC2)cc1C(=O)N1CCC(c2ccc(C#N)cc2)CC1 [Example 27, 1-[3-[4-(4-cyanophenyl)piperidine-1-carbonyl]-4-methyl-phenyl]-3-(oxan-4-ylmethyl)urea] was tested, and the inhibition at 100 µM was 80.7%.
Cc1ccc(NC(=O)NCc2ccccn2)cc1C(=O)N1CCC(c2ccc(C#N)cc2)CC1 [Example 414, 1-[3-[4-(4-cyanophenyl)piperidine-1-carbonyl]-4-methylphenyl]-3-(pyridin-2-ylmethyl)urea] was tested, and the inhibition at 100 µM was 83.6%.
For CC(C)=CCNC(=O)Nc1cc(C(=O)N2CCC(c3ccc(C#N)cc3)CC2)ccc1C [Example 96, 1-[5-[4-(4-cyanophenyl)piperidine-1-carbonyl]-2-methyl-phenyl]-3-(3-methylbut-2-enyl)urea], the inhibition at 100 µM was 103%.
With CCCNC(=O)Nc1cc(C(=O)N2CCC(c3ccc(C#N)cc3)CC2)ccc1C [Example 227, 3-[5-[4-(4-cyanophenyl)piperidine-1-carbonyl]-2-methyl-phenyl]-1-propyl-urea] the inhibition at 100 µM was 90.1%.
Cc1ccc(C(=O)N2CCC(c3ccc(C#N)cc3)CC2)cc1NC(=O)NC(C)(C)CNC(=O)c1cccnc1 [Example 93, N-[2-[[5-[4-(4-cyanophenyl)piperidine-1-carbonyl]-2-methyl-phenyl]carbamoylamino]-2-methyl-propyl]pyridine-3-carboxamide] gave an inhibition at 100 µM of 90.1%.
Cc1ccc(C(=O)N2CCC(c3ccc(C#N)cc3)CC2)cc1NC(=O)NC(C)c1ccc(F)cc1 (stereo not shown) [Example 88, 1-[5-[4-(4-cyanophenyl)piperidine-1-carbonyl]-2-methyl-phenyl]-3-[1-(4-fluorophenyl)ethyl]urea] gave an inhibition at 100 µM of 87.6%.
With Cc1ccc(C(=O)N2CCC(c3ccc(C#N)cc3)CC2)cc1NC(=O)N[C@H]1CC[C@H](NS(C)(=O)=O)C1 [Example 320, 1-[5-[4-(4-cyanophenyl)piperidine-1-carbonyl]-2-methyl-phenyl]-3-[(1S,3S)-3-methanesulfonamidocyclopentyl]urea] the inhibition at 100 µM was 94.4%.
In the case of Cc1ccc(C(=O)N2CCC(c3ccc(C#N)cc3)CC2)cc1NC(=O)NCC(C)(C)NC(=O)C(C)(C)C [Example 205, N-[1-[[5-[4-(4-cyanophenyl)piperidine-1-carbonyl]-2-methyl-phenyl]carbamoylamino]-2-methyl-propan-2-yl]-2,2-dimethyl-propanamide], the inhibition at 100 µM is reported as 88.2%.
N#Cc1ccc(C2CCN(C(=O)c3cc(NC(=O)NCc4ccccc4)ccc3F)CC2)cc1 [Example 224, 1-benzyl-3-[3-[4-(4-cyanophenyl)piperidine-1-carbonyl]-4-fluoro-phenyl]urea] was tested, and the inhibition at 100 µM was 71.9%.
Work on Cc1ccc(NC(=O)N2CCCC2)cc1C(=O)N1CCC(c2ccc(C#N)cc2)CC1 [Example 29, N-[3-[4-(4-cyanophenyl)piperidine-1-carbonyl]-4-methyl-phenyl]pyrrolidine-1-carboxamide] yielded an inhibition at 100 µM of 79.6%.
For Cc1ccc(C(=O)N2CCC(c3ccc(C#N)cc3)CC2)cc1NC(=O)NCCCN1CCCC1=O [Example 131, 1-[5-[4-(4-cyanophenyl)piperidine-1-carbonyl]-2-methyl-phenyl]-3-[3-(2-oxopyrrolidin-1-yl)propyl]urea], the inhibition at 100 µM was 89.8%.
Compound Cc1ccc(C(=O)N2CCC(c3ccc(C#N)cc3)CC2)cc1NC(=O)NCCCCCNC(=O)N1CCOCC1 [Example 173, N-[5-[[5-[4-(4-cyanophenyl)piperidine-1-carbonyl]-2-methyl-phenyl]carbamoylamino]pentyl]morpholine-4-carboxamide] has an inhibition at 100 µM of 95.5%.
Compound COc1ccccc1OCCNC(=O)Nc1cc(C(=O)N2CCC(c3ccc(C#N)cc3)CC2)ccc1C [Example 83, 1-[5-[4-(4-cyanophenyl)piperidine-1-carbonyl]-2-methyl-phenyl]-3-[2-(2-methoxyphenoxy)ethyl]urea] has an inhibition at 100 µM of 102%.
Compound Cc1ccc(C(=O)N2CCC(c3ccc(C#N)cc3)CC2)cc1NC(=O)NCCNC(=O)c1ccccn1 [Example 91, N-[2-[[5-[4-(4-cyanophenyl)piperidine-1-carbonyl]-2-methyl-phenyl]carbamoylamino]ethyl]pyridine-2-carboxamide] has an inhibition at 100 µM of 95.9%.
Cc1ccc(C(=O)N2CCC(c3ccc(C#N)cc3)CC2)cc1NC(=O)N[C@@H]1CCNC1 [Example 212, 1-[5-[4-(4-cyanophenyl)piperidine-1-carbonyl]-2-methyl-phenyl]-3-[(3R)-pyrrolidin-3-yl]urea] gave an inhibition at 100 µM of 97%.
For CCCN1CCC(NC(=O)Nc2cc(C(=O)N3CCC(c4ccc(C#N)cc4)CC3)ccc2C)CC1 [Example 79, 3-[5-[4-(4-cyanophenyl)piperidine-1-carbonyl]-2-methyl-phenyl]-1-(1-propyl-4-piperidyl)urea], the inhibition at 100 µM was 95.4%.
Cc1ccc(NC(=O)N[C@@H](C)c2ccccc2)cc1C(=O)N1CCC(c2ccc(C#N)cc2)CC1 [Example 38, 3-[3-[4-(4-cyanophenyl)piperidine-1-carbonyl]-4-methyl-phenyl]-1-[(1S)-1-phenylethyl]urea] was tested, and the inhibition at 100 µM was 76.6%.
Compound Cc1ccc(C(=O)N2CCC(c3ccc(C#N)cc3)CC2)cc1NC(=O)NC1CCC(O)CC1 (stereo not shown) [Example 107, 1-[5-[4-(4-cyanophenyl)piperidine-1-carbonyl]-2-methyl-phenyl]-3-(4-hydroxycyclohexyl)urea] has an inhibition at 100 µM of 97.7%.
For Cc1ccc(C(=O)N2CCC(c3ccc(C#N)cc3)CC2)cc1NC(=O)NCc1cccc(N2CCOCC2)n1 [Example 358, 1-[5-[4-(4-cyanophenyl)piperidine-1-carbonyl]-2-methyl-phenyl]-3-[(6-morpholin-4-ylpyridin-2-yl)methyl]urea], the inhibition at 100 µM was 93.2%.
In the case of Cc1ccc(C(=O)N2CCC(c3ccc(C#N)cc3)CC2)cc1NC(=O)NC1CCCC1C(=O)O (stereo not shown) [Example 388, 2-[[5-[4-(4-cyanophenyl)piperidine-1-carbonyl]-2-methylphenyl]carbamoylamino]-cyclopentane-1-carboxylic acid], the inhibition at 100 µM is reported as 83.9%.
Compound Cc1ccc(C(=O)N2CCC(c3ccc(C#N)cc3)CC2)cc1NC(=O)N(C)CCN(C)C [Example 394, 3-[5-[4-(4-cyanophenyl)piperidine-1-carbonyl]-2-methylphenyl]-1-(2-dimethylaminoethyl)-1-methylurea] has an inhibition at 100 µM of 68.7%.
With Cc1ccc(C(=O)N2CCC(c3ccc(C#N)cc3)CC2)cc1NC(=O)NCCNS(=O)(=O)c1ccccc1 [Example 86, 3-[2-(benzenesulfonamido)ethyl]-1-[5-[4-(4-cyanophenyl)piperidine-1-carbonyl]-2-methyl-phenyl]urea] the inhibition at 100 µM was 94%.
Cc1ccc(NC(=O)NCc2ccccc2)cc1C(=O)N1CCC(c2ccc(C#N)cc2)CC1 [Example 7, 3-benzyl-1-[3-[4-(4-cyanophenyl)piperidine-1-carbonyl]-4-methyl-phenyl]urea] was tested, and the inhibition at 100 µM was 79.1%.

Same assay, conditions: FAS enzyme assay, IC50 from fitted sigmoid curves
In the case of Cc1ccc(C(=O)N2CCC(O)(c3ccccc3F)CC2)cc1NC(=O)NC(C)C [1-[5-[4-(2-fluorophenyl)-4-hydroxypiperidine-1-carbonyl]-2-methylphenyl]-3-propan-2-ylurea], the “IC50, inhibition of human Fatty Acid Synthase” value (from here on “IC50, inhibition”) is reported as “do not have IC50s in the range of about 0.001 μM to about 30 μM”.
Cc1ccc(C(=O)N2CCC(c3cccc(F)c3)CC2)cc1NC(=O)NC(C)C [1-[5-[4-(3-fluorophenyl)piperidine-1-carbonyl]-2-methylphenyl]-3-propan-2-ylurea] was tested, and the “IC50, inhibition” value was “do not have IC50s in the range of about 0.001 μM to about 30 μM”.
For CC(=O)N[C@@H]1CCCC[C@H]1NC(=O)Nc1cc(C(=O)N2CCC(c3ccc(C#N)cc3)CC2)ccc1C (relative stereo) [N-[(trans)-2-[[5-[4-(4-cyanophenyl)piperidine-1-carbonyl]-2-methylphenyl]carbamoylamino]cyclohexyl]acetamide], the “IC50, inhibition” value was “do not have IC50s in the range of about 0.001 μM to about 30 μM”.

From patent US20090118332A1, “Therapeutic Agents - 551” (AstraZeneca AB, priority 2006, published 2009)
